Laboratory results: the supplement of paper PMC10627819

What was measured:
S. aureus Newman [1] = experiment: fitness (endpoint OD595 vs no drug) (fraction); higher = more growth
Summary of the method: (§1)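 Bacterial fitness was scored as optical density at the stationary-phase transition relative to the robust mean of no-drug control wells. Scores are capped at 1. The growth data were OD595 readings every 30 min for 14 h at 37 °C, background-subtracted against the first reading, from 384-well plates inoculated at OD595 0.01 in TSB, LB Lennox or CY.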

S. aureus DSM 20231 [2] = experiment: as above
Summary of the method: as §1

B. subtilis 168 [3] = experiment: as above
Summary of the method: as §1

S. pneumoniae D39V [4] = experiment: as above
Summary of the method: as §1

S. aureus Newman [5] = experiment: Bliss interaction score (quartile over a dose matrix) (fitness difference); higher = more antagonism (negative = synergy)
Summary of the method: (§2)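 Fitness here means normalised growth, inferred for single drugs from the combination data. Growth was OD595 at entry into stationary phase, divided by the plate's robust no-drug mean and capped at 1. The Bliss score is observed minus expected fitness, with the expectation being the product, and its quartiles span technical, biological and donor/recipient replicates.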

S. aureus DSM 20231 [6] = experiment: as above
Summary of the method: as §2

B. subtilis 168 [7] = experiment: as above
Summary of the method: as §2

S. pneumoniae D39V [8] = experiment: as above
Summary of the method: as §2
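Wherever Bliss interaction score (quartile over a dose matrix) is given: first quartile when negative (synergy) and third quartile when positive (antagonism).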
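Wherever fitness (endpoint OD595 vs no drug) is given: OD595 on entry to stationary phase over no-drug wells; at most 1.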

COc1c(N2C[C@@H]3CCCN[C@@H]3C2)c(F)cc2c(=O)c(C(=O)O)cn(C3CC3)c12 [Moxifloxacin] + CCN(CC)CCOC(=O)c1ccc(N)cc1 [Procaine]
fitness
Settings | partner 85.5 µg/mL | partner 171 µg/mL | partner 342 µg/mL
B. subtilis 168 [3], first compound 0.0312 µg/mL | 0.0464 | 0.0462 | 0.0422
B. subtilis 168 [3], first compound 0.0625 µg/mL | 0.051 | 0.0447 | 0.0546
B. subtilis 168 [3], first compound 0.125 µg/mL | 0.0477 | 0.041 | 0.0508
B. subtilis 168 [3], first compound 2 µg/mL | 0.0328 | 0.02 | 0.021
B. subtilis 168 [3], first compound 4 µg/mL | 0.0283 | 0.0228 | 0.0275
B. subtilis 168 [3], first compound 8 µg/mL | 0.017 | 0.0132 | 0.0182
S. aureus DSM 20231 [2], first compound 0.0075 µg/mL | 0.781 | 0.876 | 0.898
S. aureus DSM 20231 [2], first compound 0.015 µg/mL | 0.712 | 0.744 | 0.773
S. aureus DSM 20231 [2], first compound 0.03 µg/mL | 0.619 | 0.677 | 0.669
S. aureus Newman [1], first compound 0.0075 µg/mL | 0.771 | 0.757 | 0.763
S. pneumoniae D39V [4], first compound 0.005 µg/mL | ≥ 1 | 0.996 | ≥ 1
S. pneumoniae D39V [4], first compound 0.01 µg/mL | ≥ 1 | 0.986 | 0.974
S. pneumoniae D39V [4], first compound 0.02 µg/mL | 0.966 | 0.929 | 0.874

fitness, one replicate
Settings | partner 85.5 µg/mL | partner 171 µg/mL | partner 342 µg/mL
S. aureus DSM 20231 [2], first compound 0.06 µg/mL | 0.684 | 0.666 | 0.688
S. aureus DSM 20231 [2], first compound 0.12 µg/mL | 0.481 | 0.468 | 0.492
S. pneumoniae D39V [4], first compound 0.0037 µg/mL | 0.927 | 0.926 | 0.826
S. pneumoniae D39V [4], first compound 0.0075 µg/mL | ≥ 1 | 0.93 | 0.845
S. pneumoniae D39V [4], first compound 0.015 µg/mL | 0.881 | 0.923 | 0.849

Settings | Bliss interaction score
B. subtilis 168 [7] | -0.015
S. aureus DSM 20231 [6] | -0.0665
S. aureus Newman [5] | 0.0617
S. pneumoniae D39V [8] | 0.0674

COc1c(N2C[C@@H]3CCCN[C@@H]3C2)c(F)cc2c(=O)c(C(=O)O)cn(C3CC3)c12 [Moxifloxacin] + CN1C2=CC=CC=C2N=C3C1=CC=CC3=O [Pyocyanin]
fitness
Settings | partner 0.325 µg/mL | partner 0.65 µg/mL | partner 1.25 µg/mL | partner 1.3 µg/mL | partner 2.5 µg/mL | partner 5 µg/mL
B. subtilis 168 [3], first compound 0.0312 µg/mL | – | – | 0.0609 | – | 0.0599 | 0.0529
B. subtilis 168 [3], first compound 0.0625 µg/mL | – | – | 0.0538 | – | 0.0598 | 0.057
B. subtilis 168 [3], first compound 0.125 µg/mL | – | – | 0.0466 | – | 0.047 | 0.0468
B. subtilis 168 [3], first compound 2 µg/mL | – | – | 0.0183 | – | 0.0257 | 0.0378
B. subtilis 168 [3], first compound 4 µg/mL | – | – | 0.0241 | – | 0.0221 | 0.0304
B. subtilis 168 [3], first compound 8 µg/mL | – | – | 0.012 | – | 0.0127 | 0.0179
S. aureus DSM 20231 [2], first compound 0.0075 µg/mL | – | – | 0.836 | – | 0.755 | 0.665
S. aureus DSM 20231 [2], first compound 0.015 µg/mL | – | – | 0.743 | – | 0.711 | 0.569
S. aureus DSM 20231 [2], first compound 0.03 µg/mL | – | – | 0.678 | – | 0.706 | 0.567
S. aureus Newman [1], first compound 0.0075 µg/mL | – | – | 0.679 | – | 0.605 | 0.372
S. aureus Newman [1], first compound 0.015 µg/mL | – | – | 0.51 | – | 0.434 | 0.221
S. aureus Newman [1], first compound 0.03 µg/mL | – | – | 0.157 | – | 0.138 | 0.0727
S. pneumoniae D39V [4], first compound 0.005 µg/mL | ≥ 1 | 0.988 | – | 0.797 | – | –
S. pneumoniae D39V [4], first compound 0.01 µg/mL | ≥ 1 | 0.98 | – | 0.828 | – | –
S. pneumoniae D39V [4], first compound 0.02 µg/mL | ≥ 1 | 0.959 | – | 0.788 | – | –

one replicate
Settings | fitness
S. aureus DSM 20231 [2], first compound 0.06 µg/mL, partner 1.25 µg/mL | 0.671
S. aureus DSM 20231 [2], first compound 0.06 µg/mL, partner 2.5 µg/mL | 0.658
S. aureus DSM 20231 [2], first compound 0.06 µg/mL, partner 5 µg/mL | 0.651
S. aureus DSM 20231 [2], first compound 0.12 µg/mL, partner 1.25 µg/mL | 0.493
S. aureus DSM 20231 [2], first compound 0.12 µg/mL, partner 2.5 µg/mL | 0.514
S. aureus DSM 20231 [2], first compound 0.12 µg/mL, partner 5 µg/mL | 0.47
S. pneumoniae D39V [4], first compound 0.0037 µg/mL, partner 0.325 µg/mL | 0.925
S. pneumoniae D39V [4], first compound 0.0037 µg/mL, partner 0.65 µg/mL | 0.871
S. pneumoniae D39V [4], first compound 0.0075 µg/mL, partner 0.325 µg/mL | 0.948
S. pneumoniae D39V [4], first compound 0.0075 µg/mL, partner 0.65 µg/mL | 0.883
S. pneumoniae D39V [4], first compound 0.015 µg/mL, partner 0.325 µg/mL | 0.911
S. pneumoniae D39V [4], first compound 0.015 µg/mL, partner 0.65 µg/mL | 0.91

Settings | Bliss interaction score
B. subtilis 168 [7] | -0.0123
S. aureus DSM 20231 [6] | 0.0656
S. aureus Newman [5] | -0.0614
S. pneumoniae D39V [8] | 0.0702

COc1c(N2C[C@@H]3CCCN[C@@H]3C2)c(F)cc2c(=O)c(C(=O)O)cn(C3CC3)c12 [Moxifloxacin] + CN(N=O)C(=O)N[C@@H](C=O)[C@@H](O)[C@H](O)[C@H](O)CO [Streptozotocin]
fitness
Settings | partner 0.15 µg/mL | partner 0.3 µg/mL | partner 0.6 µg/mL | partner 1.2 µg/mL | partner 2.4 µg/mL | partner 4.8 µg/mL
B. subtilis 168 [3], first compound 0.0312 µg/mL | 0.0402 | 0.04 | 0.0108 | – | – | –
B. subtilis 168 [3], first compound 0.0625 µg/mL | 0.0394 | 0.0297 | 0.0273 | – | – | –
B. subtilis 168 [3], first compound 0.125 µg/mL | 0.0412 | 0.0464 | 0.0221 | – | – | –
S. aureus DSM 20231 [2], first compound 0.0075 µg/mL | 0.75 | 0.715 | 0.614 | – | – | –
S. aureus DSM 20231 [2], first compound 0.015 µg/mL | 0.691 | 0.681 | 0.59 | – | – | –
S. aureus DSM 20231 [2], first compound 0.03 µg/mL | 0.611 | 0.632 | 0.533 | – | – | –
S. aureus Newman [1], first compound 0.0075 µg/mL | 0.69 | 0.635 | 0.392 | – | – | –
S. aureus Newman [1], first compound 0.015 µg/mL | 0.453 | 0.378 | 0.106 | – | – | –
S. aureus Newman [1], first compound 0.03 µg/mL | 0.0433 | 0.0331 | 0.0187 | – | – | –
S. pneumoniae D39V [4], first compound 0.005 µg/mL | – | – | – | 0.94 | 0.951 | 0.943
S. pneumoniae D39V [4], first compound 0.01 µg/mL | – | – | – | 0.951 | 0.95 | 0.928
S. pneumoniae D39V [4], first compound 0.02 µg/mL | – | – | – | 0.919 | 0.875 | 0.895

fitness, one replicate
Settings | partner 0.15 µg/mL | partner 0.3 µg/mL | partner 0.6 µg/mL | partner 1.2 µg/mL | partner 2.4 µg/mL | partner 4.8 µg/mL
B. subtilis 168 [3], first compound 2 µg/mL | 0.0199 | 0.0131 | 0 | – | – | –
B. subtilis 168 [3], first compound 4 µg/mL | 0.0208 | 0.0015 | 0.0018 | – | – | –
B. subtilis 168 [3], first compound 8 µg/mL | 0.0288 | 0.0107 | 0.0248 | – | – | –
S. aureus DSM 20231 [2], first compound 0.06 µg/mL | 0.653 | 0.639 | 0.605 | – | – | –
S. aureus DSM 20231 [2], first compound 0.12 µg/mL | 0.453 | 0.448 | 0.391 | – | – | –
S. pneumoniae D39V [4], first compound 0.0037 µg/mL | – | – | – | 0.978 | 0.879 | 0.844
S. pneumoniae D39V [4], first compound 0.0075 µg/mL | – | – | – | 0.92 | 0.922 | 0.811
S. pneumoniae D39V [4], first compound 0.015 µg/mL | – | – | – | 0.878 | 0.872 | 0.811

Settings | Bliss interaction score
B. subtilis 168 [7] | -0.0331
S. aureus DSM 20231 [6] | 0.0189
S. aureus Newman [5] | -0.14
S. pneumoniae D39V [8] | 0.0634
